The numbers were not newly measured in patent publication US10085973B2, “Pharmaceutical composition containing a compound having a thrombopoietin receptor agonistic activity” (Shionogi & Co., Ltd., priority 2012, dated 2018), which cites them from elsewhere.

Where two headings read alike, the source gives them in different places.

This data set concerns chronic liver disease patients with platelet count of less than 5×10^4/μL. Particulars: cited from earlier work.

`CC1=NN(c2ccc(C)c(C)c2)C(=O)/C1=N\Nc1cccc(-c2cccc(C(=O)O)c2)c1O` [Eltrombopag]: the “avoidance of platelet transfusion” value (active drug group, administered for 2 weeks before invasive procedures) was 72%. The “incidence of portal vein thrombosis” value (active drug group) was 4%. In addition, the “risk of development of portal vein thrombosis” value (group having platelet count of 20×10^4/μL or higher during the investigation period) is listed as 10.6% and the “risk of development of portal vein thrombosis” value (group with platelet count of less than 20×10^4/μL) is on record as 1.2%. Further, the “risk of portal vein thrombosis, group 20×10^4/μL or higher vs group less than 20×10^4/μL” value (human, in vivo) was “about 9 times”. In addition, the “cases with platelet count 20×10^4/μL or higher at the time of development of portal vein thrombosis” value (out of 6 cases in the active drug group) is listed as 5.
